# Test results reported in patent publication US11467159B2, “Luminescent phospholipid analogs for the identification and isolation of circulating tumor cells” (CELLECTAR BIOSCIENCES, INC., priority 2016, dated 2022).
# Key:
# [1] = system: xenograft and spontaneous tumor models; conditions: over 55 xenograft and spontaneous tumor models; cited from earlier work
# [2] = system: CD45+ and CD34+ cells; test: Flow cytometry uptake of CLR1501 in remaining CD45+ and CD34+ cells of patient blood; assay type: cell-based, human; conditions: same patient, in comparison with CD14+ cells
# Source text: (§1) Whole blood was collected in either Cell Save® collection tubes or ethylenediaminetetraacetic acid (“EDTA”) collection tubes from seven cancer patients with lung (patients 101 and 103), thyroid (patient 102), breast (patient 106), cervical (patient 104), squamous cell carcinoma (107), and colorectal (patient 108) cancer prior to (draw 1) and after (draw 2) therapy, when available. Mononuclear cells were isolated from the whole blood using a Ficoll-Paque density gradient. Cells from each patient were then incubated with an Fc blocker. The cells were then stained with fluorescently-tagged antibodies to CD45, CD14, CD34, EpCAM, and pan-Cytokeratin (CK), and a fluorescent PLE analog (“CLR1501”) for 30 minutes. Cells were then analyzed by flow cytometry to indicate the number of cells from each whole blood sample that were positive and/or negative for a particular marker. According to the current definition, CTCs were identified as live cells that were CD45−, CD14−, CD34−, CK+, and EpCAM+ (“by definition”). Due to prior experience with CD14+ monocytes/macrophages (FIG. 1), CD14+ cells were removed from the analyses due to high uptake of CLR1501. CD34+ normal […] cells were also removed from the analyses.
# [3] = system: CD14+ monocytes/macrophages; test: Flow cytometry uptake of CLR1501 in CD14+ cells of patient blood (FIG. 1); assay type: cell-based, human
# Source text: FIG. 1. […] Upper left quadrant indicates CD14−/CLR1501+ cells, upper right indicates CD14+/CLR1501+, bottom right indicates CD14+/CLR1501−, and bottom left indicates CD14−/CLR1501.
# Whole blood was collected in either Cell Save® collection tubes or ethylenediaminetetraacetic acid (“EDTA”) collection tubes from seven cancer patients with lung (patients 101 and 103), thyroid (patient 102), breast (patient 106), cervical (patient 104), squamous cell carcinoma (107), and colorectal (patient 108) cancer prior to (draw 1) and after (draw 2) therapy, when available. Mononuclear cells were isolated from the whole blood using a Ficoll-Paque density gradient. Cells from each patient were then incubated with an Fc blocker. The cells were then stained with fluorescently-tagged antibodies to CD45, CD14, CD34, EpCAM, and pan-Cytokeratin (CK), and a fluorescent PLE analog (“CLR1501”) for 30 minutes. Cells were then analyzed by flow cytometry to indicate the number of cells from each whole blood sample that were positive and/or negative for a particular marker. According to the current definition, CTCs were identified as live cells that were CD45−, CD14−, CD34−, CK+, and EpCAM+ (“by definition”). Due to prior experience with CD14+ monocytes/macrophages (FIG. 1), CD14+ cells were removed from the analyses due to high uptake of CLR1501. CD34+ normal […] cells were also removed from the analyses. […]
# [4] = system: circulating tumor cells; test: Flow cytometry identification and enumeration of circulating tumor cells in mononuclear cells from cancer patients' whole blood stained with CLR1501; assay type: cell-based, human; conditions: for CK−/EpCAM−/CLR1501+ cells (number): CD45−, CD14−, CD34−, nucleated
# Source text: as §1
# The first row of Tables 1 and 2 depicts the number of cells from each patient's blood draw that fulfilled the definition of a CTC: CD45−, CD14−, CD34−, CK+, and EpCAM+, and contained a nucleus. The second row depicts the number of cells from each patient's blood draw that were CD45−, CD14−, CD34−, CK+, and contained a nucleus. The third row depicts the number of cells from each patient's blood draw that were CLR 1501+, CD45−, CD14−, CD34−, CK+, and contained a nucleus. The fourth row depicts the number of cells from each patient's blood draw that were CD45−, CD14−, CD34−, and EpCAM+ and contained a nucleus. The fifth row depicts the number of cells from each patient's blood draw that were CLR 1501+, CD45−, CD14−, CD34−, and EpCAM+ and contained a nucleus. The sixth row depicts the number of cells from each patient's blood draw that were CLR 1501+, CD45−, CD14−, CD34−, CK−, and EpCAM−, and contained a nucleus.
smiles,measurement,setting,value
C[N+](C)(C)CCOP(=O)([O-])OCCCCCCCCCCCCCCCCCCc1ccc(I)cc1 [CLR1404],uptake and retention in tumors,[1],selective uptake and prolonged retention in tumors
C[N+](C)(C)CCOP(=O)([O-])OCCCCCCCCCCCCCCCCCCc1ccc(C2=C3C=CC=[N+]3[B-](F)(F)n3cccc32)cc1 [CLR1501],uptake of CLR1501 by remaining CD45+ and CD34+ cells,[2],not take up CLR1501 to a large extent
same,uptake of CLR1501 in CD14+ cells,"[3]; CD14+ monocytes/macrophages, FIG. 1",high uptake
same,cells positive for CD14+ that are also positive for CLR1501,"[3]; CD45−, CD34− cells from patient 108 (colorectal cancer), FIG. 1 panel B",99.7%
same,CK−/EpCAM−/CLR1501+ cells (number),"[4]; Cell Save tube, patient 101 draw 1, lung cancer",1.4 M
same,CK−/EpCAM−/CLR1501+ cells (number),"[4]; Cell Save tube, patient 101 draw 2, lung cancer","121,696 cells"
same,CK−/EpCAM−/CLR1501+ cells (number),"[4]; Cell Save tube, patient 102 draw 1, thyroid cancer",6.7 M
same,CK−/EpCAM−/CLR1501+ cells (number),"[4]; Cell Save tube, patient 102 draw 2, thyroid cancer",7.9 M
same,CK−/EpCAM−/CLR1501+ cells (number),"[4]; Cell Save tube, patient 103, lung cancer",5.3 M
same,CK−/EpCAM−/CLR1501+ cells (number),"[4]; Cell Save tube, patient 104 draw 1, cervical cancer",1.3 M
same,CK−/EpCAM−/CLR1501+ cells (number),"[4]; Cell Save tube, patient 106, breast cancer",278 cells
same,CK−/EpCAM−/CLR1501+ cells (number),"[4]; Cell Save tube, patient 107, carcinoma","611,622 cells"
same,CK−/EpCAM−/CLR1501+ cells (number),"[4]; Cell Save tube, patient 108 draw 1, colorectal cancer","1,062 cells"
same,CK−/EpCAM−/CLR1501+ cells (number),"[4]; Cell Save tube, patient 108 draw 2, colorectal cancer",1.1 M
same,CK−/EpCAM−/CLR1501+ cells (number),"[4]; EDTA tube, patient 101 draw 1, lung cancer",1.8 M
same,CK−/EpCAM−/CLR1501+ cells (number),"[4]; EDTA tube, patient 101 draw 2, lung cancer","30,222 cells"
same,CK−/EpCAM−/CLR1501+ cells (number),"[4]; EDTA tube, patient 102 draw 1, thyroid cancer",1.5 M
same,CK−/EpCAM−/CLR1501+ cells (number),"[4]; EDTA tube, patient 102 draw 2, thyroid cancer",10.9 M
same,CK−/EpCAM−/CLR1501+ cells (number),"[4]; EDTA tube, patient 103, lung cancer",2.5 M
same,CK−/EpCAM−/CLR1501+ cells (number),"[4]; EDTA tube, patient 104, cervical cancer",4.0 M
same,CK−/EpCAM−/CLR1501+ cells (number),"[4]; EDTA tube, patient 106, breast cancer","19,585 cells"
same,CK−/EpCAM−/CLR1501+ cells (number),"[4]; EDTA tube, patient 107, carcinoma","147,641 cells"
same,CK−/EpCAM−/CLR1501+ cells (number),"[4]; EDTA tube, patient 108 draw 1, colorectal cancer","29,584 cells"
same,CK−/EpCAM−/CLR1501+ cells (number),"[4]; EDTA tube, patient 108 draw 2, colorectal cancer","753,387 cells"
same,CK+ cells identified by CLR 1501,"[4]; all cancer types, either blood collection tube, listed as 2 vs row 3 of Table 1 or 2",99-100%
same,EpCAM+ cells identified by CLR 1501,"[4]; all cancer types, either blood collection tube, listed as 4 vs row 5 of Table 1 or 2",35-100%
same,uptake of CLR1501 by CTCs (by definition),[4]; all seven patient samples,positive uptake
